Test [1] concerns STING (IFN-β in hPBMC). As to the kind of experiment: hPBMC cytokine functional assay (IFN-β decrease after Baculovirus stimulation). It counts as cell-based. The following applies: Homo sapiens, Baculovirus MOI 40, 24 hours, read-out: hPBMC_IC50. The method, then:
The inhibition of STING by compounds could be measured by the decrease of IFN-β in hPBMC, which is stimulated by a double stranded DNA virus Baculoviurs (Purchased from Genescript, pCMV-Dest Vector virus generation P2 BV stock virus, Sf-900 II medium with 5% FBS, Lot C9835DK230-2/P4DL001). Frozen hPBMC cells (purchased from Stemcell Technologies, cat number is 70025, Lot 191070803C) were thawed at 37° C. water bath, then cells were re-suspended in 50 ml tube using 20 ml Cell culture medium, and then centrifuged for 5 min at 2000 rpm before the supernatant was removed carefully. The cells were re-suspended in culture medium (RPMI-1640 with 1.5 g/L NaHCO3, 4.5 g/L glucose, 10 mM HEPES and 1 mM Na-pyruvate, 10% HI-FBS); 65 μL of the cell suspension was dispensed into 384 well plate (70K cells/well) by Multidrop Combi with at least 3 hours incubation at 37° C., 5% CO2 cell incubator.
Then 4 μL of compound solution per well (final 0.5% DMSO) was transferred by Agilent Bravo followed by infection with 11 μL of Baculovirus at a final MOI of 40. The level of IFN-β secreted in the supernatant of hPBMC was determined after 24 hours of incubation at 37° C. cell incubator by human IFN-β HTRF assay (Cisbio, cat: 62HIFNBPEH) following the manufacture's instruction. CellTiter-Glo kit (Promega, cat: G7573) was applied for the cell viability evaluation using Envision.

For test [2], the target named is human stimulator of interferon genes (STING) (139-379) (Homo sapiens (Human), UniProt Q86WV6). As to the kind of experiment: Microliter plate-based TR-FRET competition-binding assay for binders of STING. The following applies: Alexa488 probe, read-out: FRET_IC50. The method, then: This is the competition-binding assay to test the compounds' potency to the C-terminal Domain (CTD) and ligand-binding domain of human stimulator of interferon genes (STING). STING (139-379, Q86WV6, http://www.uniprot.org/uniprot) recombinant protein (in 20 mM Tris, 150 mM NaCl, pH 8.0, and expression in Escherichia coli (E. coli) BL21 (DE3)) with a C-terminal flag-tag was employed for the assay. When Alexa-488 labeled active site probe (refer to patent WO2017/175156 A1) bounds to STING (139-379), it accepts the 485 nm emission from Tb-M2-Flag-STING and results in an increase in fluorescence at 520 nm. Compounds that compete for the probe-binding site will reduce 520 nm signal. The assay was run in proxiplate-384 plus (PerkinElmer, cat: 60150300) containing of 2.5 nM STING, 2.5 nM M2-Tb (Cisbio, 61FG2TLA, Lot: 17 A) and 250 nM Alexa488 probe. Plates were centrifuged for 1 min at 1000 rpm, incubated for 30 min at room temperature, and then measured the dual fluorescence emission at 520 nm/485 nM following 320 nm laser excitation on an Envision plate reader (Perkin-Elmer). The compounds' effect on the STING binding is detected by measuring ratiometric fluorescence from time-resolved FRET. The percentage of inhibition of at each compound concentration is calculated on the basis of their changes of TR-FRET efficiency relative to the change of TR-FRET caused by positive control 2′3′cGAMP (Sigma, cat: SML1229).
human stimulator of interferon genes (STING) (139-379), sequence (Q86WV6 139-379): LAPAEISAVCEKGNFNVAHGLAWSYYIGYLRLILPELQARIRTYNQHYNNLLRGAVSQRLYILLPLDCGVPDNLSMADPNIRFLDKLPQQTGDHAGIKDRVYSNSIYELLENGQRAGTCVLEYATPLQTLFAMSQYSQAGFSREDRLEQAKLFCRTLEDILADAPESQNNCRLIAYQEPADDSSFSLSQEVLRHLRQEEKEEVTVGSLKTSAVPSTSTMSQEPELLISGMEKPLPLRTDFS
In general terms: In TR-FRET formats the signal depends on donor and acceptor labels being close together.

pIC50: −log10 of the molar value.

Take `COc1cc2nc(c1)-c1cccc3nn(C)c(c13)CCCN(C)C(=O)[C@@H]1C[C@@H](CN1c1ncnc3c1cnn3-c1ccc(F)cc1F)N2` [Example 13, (8S,11S)-10-[1-(2,4-difluorophenyl)pyrazolo[3,4-d]pyrimidin-4-yl]-4-methoxy-13,18-dimethyl-7,10,13,18,19,26-hexazapentacyclo[15.6.1.1^2,6.1^8,11.0^20,24]hexacosa-1(23),2,4,6(26),17(24),19,21-heptaen-12-one]: the pIC50 is 6.65 in test [1] and 8.33 in test [2].
Take `CN1CCCc2c3c(cccc3nn2C)-c2cccc(n2)N[C@H]2C[C@@H](C1=O)N(c1ncnc3c1cnn3-c1ccc(F)cc1F)C2` [Example 3, (8S,11S)-10-[1-(2,4-difluorophenyl)pyrazolo[3,4-d]pyrimidin-4-yl]-13,18-dimethyl-7,10,13,18,19,26-hexazapentacyclo[15.6.1.1^2,6.1^8,11.0^20,24]hexacosa-1(23),2(26),3,5,17(24),19,21-heptaen-12-one]: the pIC50 in test [1] was 6.54; in test [2], 9.22.
Regarding `Cn1nc2cccc3c2c1CCCN(CC1CC1)C(=O)[C@@H]1C[C@@H](CN1c1ncnc2c1cnn2-c1ccc(F)cc1F)Oc1cccc-3c1` [Example 15, (8S,11S)-13-(cyclopropylmethyl)-10-[1-(2,4-difluorophenyl)pyrazolo[3,4-d]pyrimidin-4-yl]-18-methyl-7-oxa-10,13,18,19-tetrazapentacyclo[15.6.1.1^2,6.1^8,11.0^20,24]hexacosa-1(23),2(26),3,5,17(24),19,21-heptaen-12-one], the values for the pIC50 in test [1] and in test [2] were 6.85 and 8.80, respectively.
On to `Cn1nc2cccc3c2c1CCCN(CCCc1ccccc1)C(=O)[C@@H]1C[C@@H](CN1c1ncnc2c1cnn2-c1ccc(F)cc1F)Oc1cccc-3n1` [Example 41, (8S,11S)-10-[1-(2,4-difluorophenyl)pyrazolo[3,4-d]pyrimidin-4-yl]-18-methyl-13-(3-phenylpropyl)-7-oxa-10,13,18,19,26-pentazapentacyclo[15.6.1.1^2,6.1^8,11.0^20,24]hexacosa-1(23),2(26),3,5,17(24),19,21-heptaen-12-one], for which the pIC50 in test [1] was 7.32; in test [2], 8.68.
The corresponding values for `Cn1nc2cccc3c2c1CCCN(CCOCc1ccncc1)C(=O)[C@@H]1C[C@@H](CN1c1ncnc2c1cnn2-c1ccc(F)cc1F)Oc1cccc-3c1` [Example 28, (8S,11S)-10-[1-(2,4-difluorophenyl)pyrazolo[3,4-d]pyrimidin-4-yl]-18-methyl-13-[2-(4-pyridylmethoxy)ethyl]-7-oxa-10,13,18,19-tetrazapentacyclo[15.6.1.1^2,6.1^8,11.0^20,24]hexacosa-1(23),2(26),3,5,17(24),19,21-heptaen-12-one] are 6.74 and 9.70.
The corresponding values for `COCCCN1CCCc2c3c(cccc3nn2C)-c2cccc(c2)O[C@H]2C[C@@H](C1=O)N(c1ncnc3c1cnn3-c1ccc(F)cc1F)C2` [Example 27, (8S,11S)-10-[1-(2,4-difluorophenyl)pyrazolo[3,4-d]pyrimidin-4-yl]-13-(3-methoxypropyl)-18-methyl-7-oxa-10,13,18,19-tetrazapentacyclo[15.6.1.1^2,6.1^8,11.0^20,24]hexacosa-1(23),2(26),3,5,17(24),19,21-heptaen-12-one] are 7.64 and 7.85.
The corresponding values for `Cn1nc2cccc3c2c1CCCN(CCCO)C(=O)[C@@H]1C[C@@H](CN1c1ncnc2c1cnn2-c1ccc(F)cc1F)Oc1cccc-3c1` [Example 26, (8S,11S)-10-[1-(2,4-difluorophenyl)pyrazolo[3,4-d]pyrimidin-4-yl]-13-(3-hydroxypropyl)-18-methyl-7-oxa-10,13,18,19-tetrazapentacyclo[15.6.1.1^2,6.1^8,11.0^20,24]hexacosa-1(23),2(26),3,5,17(24),19,21-heptaen-12-one] are 6.99 and 8.66.
As for `CC(=O)N1CCN(CCCN2CCCc3c4c(cccc4nn3C)-c3cccc(c3)O[C@H]3C[C@@H](C2=O)N(c2ncnc4c2cnn4-c2ccc(F)cc2F)C3)CC1` [Example 33, (8S,11S)-13-[3-(4-acetylpiperazin-1-yl)propyl]-10-[1-(2,4-difluorophenyl)pyrazolo[3,4-d]pyrimidin-4-yl]-18-methyl-7-oxa-10,13,18,19-tetrazapentacyclo[15.6.1.1^2,6.1^8,11.0^20,24]hexacosa-1(23),2(26),3,5,17(24),19,21-heptaen-12-one], the pIC50 was 6.09 in test [1] and 8.77 in test [2].
For `Cn1nc2cccc3c2c1CCCN(CCCn1ccnc1)C(=O)[C@@H]1C[C@@H](CN1c1ncnc2c1cnn2-c1ccc(F)cc1F)Oc1cccc-3c1` [Example 38, (8S,11S)-10-[1-(2,4-difluorophenyl)pyrazolo[3,4-d]pyrimidin-4-yl]-13-(3-imidazol-1-ylpropyl)-18-methyl-7-oxa-10,13,18,19-tetrazapentacyclo[15.6.1.1^2,6.1^8,11.0^20,24]hexacosa-1(23),2(26),3,5,17(24),19,21-heptaen-12-one] the same measures were 6.33 and 9.05.
The corresponding values for `CN1CCCc2c3c(cccc3nn2C)-c2cccc(c2)O[C@H]2C[C@@H](C1=O)N(c1ncnc3c1cnn3-c1ccc(F)cc1F)C2` [Example 2, (8S,11S)-10-[1-(2,4-difluorophenyl)pyrazolo[3,4-d]pyrimidin-4-yl]-13,18-dimethyl-7-oxa-10,13,18,19-tetrazapentacyclo[15.6.1.1^2,6.1^8,11.0^20,24]hexacosa-1(23),2(26),3,5,17(24),19,21-heptaen-12-one] are 6.23 and 8.57.
For `Cn1nc2cc(F)cc3c2c1CCCN(CCN1CCOCC1)C(=O)[C@@H]1C[C@@H](CN1c1ncnc2c1cnn2-c1ccc(F)cc1F)Oc1cccc-3c1` [Example 25, (8S,11S)-10-[1-(2,4-difluorophenyl)pyrazolo[3,4-d]pyrimidin-4-yl]-22-fluoro-18-methyl-13-(2-morpholinoethyl)-7-oxa-10,13,18,19-tetrazapentacyclo[15.6.1.1^2,6.1^8,11.0^20,24]hexacosa-1(23),2(26),3,5,17(24),19,21-heptaen-12-one] the same measures were 6.26 and 7.74.
For the compound `COCCOCCCN1CCCc2c3c(cccc3nn2C)-c2cccc(c2)O[C@H]2C[C@@H](C1=O)N(c1ncnc3c1cnn3-c1ccc(F)cc1F)C2` [Example 39, (8S,11S)-10-[1-(2,4-difluorophenyl)pyrazolo[3,4-d]pyrimidin-4-yl]-13-[3-(2-methoxyethoxy)propyl]-18-methyl-7-oxa-10,13,18,19-tetrazapentacyclo[15.6.1.1^2,6.1^8,11.0^20,24]hexacosa-1(23),2(26),3,5,17(24),19,21-heptaen-12-one], in test [2], the pIC50 is 8.26.
The same measure, in the same setting: the value for `Cn1nc2cccc3c2c1CCCN(Cc1cscn1)C(=O)[C@@H]1C[C@@H](CN1c1ncnc2c1cnn2-c1ccc(F)cc1F)Oc1cccc-3c1` [Example 17, (8S,11S)-10-[1-(2,4-difluorophenyl)pyrazolo[3,4-d]pyrimidin-4-yl]-18-methyl-13-(thiazol-4-ylmethyl)-7-oxa-10,13,18,19-tetrazapentacyclo[15.6.1.1^2,6.1^8,11.0^20,24]hexacosa-1(23),2(26),3,5,17(24),19,21-heptaen-12-one] was 8.66; that for `Cn1nc2cccc3c2c1CCCN(CCCn1cncn1)C(=O)[C@@H]1C[C@@H](CN1c1ncnc2c1cnn2-c1ccc(F)cc1F)Oc1cccc-3c1` [Example 37, (8S,11S)-10-[1-(2,4-difluorophenyl)pyrazolo[3,4-d]pyrimidin-4-yl]-18-methyl-13-[3-(1,2,4-triazol-1-yl)propyl]-7-oxa-10,13,18,19-tetrazapentacyclo[15.6.1.1^2,6.1^8,11.0^20,24]hexacosa-1(23),2(26),3,5,17(24),19,21-heptaen-12-one] was 8.82.

Source of the values: US20260070927A1, “INDAZOLE MACROCYCLES FOR THE TREATMENT OF AUTOIMMUNE DISEASE” (Hoffmann-La Roche Inc., priority 2022, published 2026).
